From patent US20120122870A1, “Treatment Of Ischemia-Reperfusion Injury” (MUSC FOUNDATION FOR RESEARCH DEVELOPMENT, priority 2009, published 2012)
pIC50: −log10 of the molar value.

Tested on: endogenous SK activity in MDA-MB-231 cells
Test: Cellular S1P production (endogenous SK activity) in MDA-MB-231 cells
Assay type: cell-based
Conditions: Homo sapiens, MDA-MB-231, MDA-MB-231 cells incubated with 20 μg/mL of compound; percentage of S1P production inhibited
Description: Human SK was incubated with 6 μg/mL of the indicated compounds, and then assayed for activity as described above. Values in the column labeled “Recombinant SK (% inhibition)” represent the percentage of SK activity that was inhibited. MDA-MB-231 cells were incubated with 20 μg/mL of the indicated compounds and then assayed for endogenous SK activity as indicated above. Values in the column labeled “Cellular S1P (% inhibition)” represent the percentage of S1P production that was inhibited. Additionally, MDA-MB-231 cells were treated with varying concentration of certain compounds and the amount of S1P produced by the cells was determined. Values in the column labeled “Cellular S1P IC50 (μM)” represent the concentration of compound required to inhibit the production of S1P by 50%. ND=not determined.

Structure (SMILES) | inhibition at 20 µg/mL [%]
CCCC(=O)Oc1ccc(C=CC(=O)Nc2nc(-c3ccc(C)cc3)cs2)cc1OC [B19, Butyric acid 2-methoxy-4-[2-(4-p-tolyl-thiazol-2-ylcarbamoyl)-vinyl]-phenyl ester] | 53
O=C(C=Cc1ccc([N+](=O)[O-])cc1)Nc1nc(-c2ccc(Cl)cc2)cs1 [B5, N-[4-(4-Chloro-phenyl)-thiazol-2-yl]-3-(4-nitro-phenyl)-acrylamide] | 25
O=C(NCc1ccc(Cl)c(C(F)(F)F)c1)c1nc(-c2ccc(Cl)cc2)cs1 [B37, 4-(4-Chloro-phenyl)-thiazole-2-carboxylic acid 4-chloro-3-trifluoromethyl-benzylamide] | 0
COc1ccc(CCNC(=O)c2nc(-c3ccc(Cl)cc3)cs2)cc1Br [B41, 4-(4-Chloro-phenyl)-thiazole-2-carboxylic acid [2-(3-bromo-4-methoxy-phenyl)-ethyl]-amide] | 0
O=C(NCc1ccc(F)c(F)c1)c1nc(-c2ccc(Cl)cc2)cs1 [B40, 4-(4-Chloro-phenyl)-thiazole-2-carboxylic acid 3,4-difluoro-benzylamide] | 0
O=C(C=Cc1ccccc1)Nc1nc2cc(Cl)ccc2o1 [B88, N-(5-Chloro-benzooxazol-2-yl)-3-phenyl-acrylamide] | 46
CCCC(=O)Oc1ccccc1C=CC(=O)Nc1nc(-c2ccc(Cl)cc2)cs1 [B13, Butyric acid 2-{2-[4-(4-chloro-phenyl)-thiazol-2-ylcarbamoyl]-vinyl}-phenyl ester] | 0
CCCC(=O)Oc1cc(C(=O)Nc2nc(-c3ccc(Cl)cc3)cs2)cc(OC(=O)CCC)c1OC(=O)CCC [B27, Butyric acid 2,6-bis-butyryloxy-4-[4-(4-chloro-phenyl)-thiazol-2-ylcarbamoyl]-phenyl ester] | 68
O=C(Nc1ccc(Cl)c(C(F)(F)F)c1)Nc1nc2cc(Cl)ccc2o1 [B93, 1-(5-Chloro-benzooxazol-2-yl)-3-(4-chloro-3-trifluoromethyl-phenyl)-urea] | 53
CN1CCCC1CCNC(=O)c1cccc(-c2ccc(Cl)cc2)c1 (centres unmarked) [B80, 4′-Chloro-biphenyl-3-carboxylic acid [2-(1-methyl-pyrrolidin-2-yl)-ethyl]-amide] | 70
CCCC(=O)Oc1ccc(C=CC(=O)Nc2nc(-c3ccc(Br)cc3)cs2)cc1OC [B20, Butyric acid 4-{2-[4-(4-bromo-phenyl)-thiazol-2-ylcarbamoyl]-vinyl}-2-methoxy-phenyl ester] | 62
CCCC(=O)Oc1ccc(C=CC(=O)Nc2nc(-c3ccc(Cl)cc3)cs2)cc1OC [B8, Butyric acid 4-{2-[4-(4-chloro-phenyl)-thiazol-2-ylcarbamoyl]-vinyl}-2-methoxy-phenyl ester] | 80
CCCCCCCCCCCCCC(=O)Nc1nc(-c2ccc(Cl)cc2)cs1 [B2, Tetradecanoic acid [4-(4-chloro-phenyl)-thiazol-2-yl]-amide] | 43
CCCCCCCCCCCCCC(=O)Nc1nc2cc(Cl)ccc2o1 [B91, Tetradecanoic acid (5-chloro-benzooxazol-2-yl)-amide] | 0
CC(C)NCC12CC3CC(C1)CC(c1ccc(Cl)cc1)(C3)C2 [A75, [3-(4-Chloro-phenyl)-adamantan-1-ylmethyl]-isopropyl-amine] | 41
O=C(NCCc1cccc(Oc2ccccc2)c1)c1nc(-c2ccc(Cl)cc2)cs1 [B44, 4-(4-Chloro-phenyl)-thiazole-2-carboxylic acid [2-(3-phenoxy-phenyl)-ethyl]-amide] | 0

Structure (SMILES) | inhibition at 20 µg/mL [%]
O=C(NCc1ccncc1)c1nc(-c2ccc(Cl)cc2)cs1 [B34, 4-(4-Chloro-phenyl)thiazole-2-carboxylic acid (pyridin-4-ylmethyl)amide] | 28
Clc1ccc(-c2csc(N(CCCc3ccccc3)CCCc3ccccc3)n2)cc1 [B71, [4-(4-Chloro-phenyl)-thiazol-2-yl]-bis-(3-phenyl-propyl)-amine] | 15
COc1ccc(CCC(=O)Nc2nc(-c3ccc(Cl)cc3)cs2)cc1OC [B23, N-[4-(4-Chloro-phenyl)-thiazol-2-yl]-3-(3,4-dimethoxy-phenyl)-propionamide] | 14
CCCC(=O)Oc1cccc(C=CC(=O)Nc2nc(-c3ccc(Cl)cc3)cs2)c1 [B14, Butyric acid 3-{2-[4-(4-chloro-phenyl)-thiazol-2-ylcarbamoyl]-vinyl}-phenyl ester] | 39
O=C(Nc1nc2cc(Cl)ccc2o1)c1ccccc1[N+](=O)[O-] [B87, N-(5-Chloro-benzooxazol-2-yl)-2-nitro-benzamide] | 64
CCCCCCCCCCCCCCCC(=O)Nc1nc2cc(Cl)ccc2o1 [B92, Hexadecanoic acid (5-chloro-benzooxazol-2-yl)-amide] | 4
O=C(NCc1cc(F)cc(F)c1)c1nc(-c2ccc(Cl)cc2)cs1 [B36, 4-(4-Chloro-phenyl)-thiazole-2-carboxylic acid 3,5-difluoro-benzylamide] | 0
C=CCCCCCCCCC(=O)Nc1nc2cc(Cl)ccc2o1 [B90, Undec-10-enoic acid (5-chloro-benzooxazol-2-yl)-amide] | 39
CCCC(=O)Oc1ccc(CC(=O)Nc2nc(-c3ccc(Cl)cc3)cs2)cc1OC(=O)CCC [B17, Butyric acid 2-butyryloxy-5-{[4-(4-chloro-phenyl)-thiazol-2-ylcarbamoyl]-methyl}-phenyl ester] | 57
O=C(Nc1ccc(Cl)c(C(F)(F)F)c1)Nc1nc2ccccc2s1 [B94, 1-Benzothiazol-2-yl-3-(4-chloro-3-trifluoromethyl-phenyl)-urea] | 13
CCCC(=O)Oc1ccc(CC(=O)Nc2nc(-c3ccc(Cl)cc3)cs2)cc1OC [B16, Butyric acid 4-{[4-(4-chloro-phenyl)-thiazol-2-ylcarbamoyl]-methyl}-2-methoxy-phenyl ester] | 83
O=C(NCCc1ccc(O)c(O)c1)C12CC3CC(C1)CC(c1ccc(Cl)cc1)(C3)C2 [A44, 3-(4-Chloro-phenyl)-adamantane-1-carboxylic acid [2-(3,4-dihydroxy-phenyl)-ethyl]-amide] | 88
CC(=O)Oc1ccc(C=CC(=O)Nc2nc(-c3ccc(Cl)cc3)cs2)cc1 [B12, Acetic acid 4-{2-[4-(4-chloro-phenyl)-thiazol-2-ylcarbamoyl]-vinyl}-phenyl ester] | 13
O=C(Nc1ccc(Cl)c(C(F)(F)F)c1)Nc1nc(-c2ccc(Cl)cc2)cs1 [B1, 1-[4-(4-Chloro-phenyl)-thiazol-2-yl]-3-(4-chloro-3-trifluoromethyl-phenyl)-urea] | 32
COc1cc(C=CC(=O)Nc2nc(-c3ccc(Cl)cc3)cs2)ccc1OC(C)=O [B10, Acetic acid 4-{2-[4-(4-chloro-phenyl)-thiazol-2-ylcarbamoyl]-vinyl}-2-methoxy-phenyl ester] | 48
CN1CCC(NC(=O)c2cccc(-c3ccc(Cl)cc3)c2)CC1 [B82, 4′-Chloro-biphenyl-3-carboxylic acid (1-methyl-piperidin-4-yl)-amide] | 67

Same assay, conditions: Homo sapiens; MDA-MB-231 cells, varying concentrations; concentration inhibiting S1P production by 50%

Structure (SMILES) | pIC50
CCCC(=O)Oc1ccc(C=CC(=O)Nc2nc(-c3ccc(Cl)cc3)cs2)cc1OC [B8, Butyric acid 4-{2-[4-(4-chloro-phenyl)-thiazol-2-ylcarbamoyl]-vinyl}-2-methoxy-phenyl ester] | 4.47
O=C(Nc1nc2cc(Cl)ccc2o1)c1ccccc1[N+](=O)[O-] [B87, N-(5-Chloro-benzooxazol-2-yl)-2-nitro-benzamide] | 4.66
O=C(NCCc1ccc(O)c(O)c1)C12CC3CC(C1)CC(c1ccc(Cl)cc1)(C3)C2 [A44, 3-(4-Chloro-phenyl)-adamantane-1-carboxylic acid [2-(3,4-dihydroxy-phenyl)-ethyl]-amide] | 4.46
